Test results from patent US7592457B2 (Korea Research Institute of Chemical Technology, priority 2004, dated 2009).

How the values were obtained:
[1] = target: T1, human serotonin 5-HT6 receptor (Homo sapiens, UniProt P50406); experiment: [3H]LSD binding at cloned 5-HT6 receptors; conditions: for IC50: [3H]LSD 1.87 nM, cloned receptor membranes, 37° C., 60 min, read-out: IC50; for inhibition at 10 µM: read-out: Binding affinity (Inhibition rate % at 10 μM) 5HT6
T1 construct: made in house; host or cells: Sf21 insect cells (pBacPAK8 baculovirus vector)

[2] = target: D1 (Homo sapiens, UniProt P21728); experiment: Radioligand binding for selectivity, D1; conditions: read-out: Binding affinity (Inhibition rate % at 10 μM) D1
[3] = target: T2, hD2L receptor (Homo sapiens, UniProt P14416); experiment: Radioligand binding, dopamine D2 ([3H]spiperone); conditions: read-out: Binding affinity (Inhibition rate % at 10 μM) D2
T2 construct: purchased BioSignal Packard Inc., Montreal, Canada
Protocol: (§1) The radioligands used were [^3H] spiperone (for hD2L and hD3 receptors, 1 nM) and [^3H] YM-09151-2 (for hD4.2 receptor, 0.06 nM). Radioligand bindings were performed by the protocols provided by the supplier of receptor membranes (BioSignal Packard Inc., Montreal, Canada). Briefly, the buffer used in D2 or D3 receptor binding assay was 50 mM Tris-HCl (pH 7.4), 10 mM MgCl2, 1 mM EDTA, or 50 mM Tris-HCl (pH 7.4), 5 mM MgCl2, 5 mM EDTA, 5 mM KCl, 1.5 mM CaCl2, 120 mM NaCl, respectively. In [^3H] YM-09151-2 receptor binding assays, the buffer containing 50 mM Tris-HCl (pH 7.4), 5 mM MgCl2, 5 mM EDTA, 5 mM KCl and 1.5 mM CaCl2 was used. Nonspecific binding was determined with haloperidol (10 μM) or clozapine (10 μM) for D2 and D3, and D4 receptors, respectively. Competition binding studies were carried out with 7-8 concentrations of the test compound run in duplicate tubes, and isotherms from three assays were calculated by computerized nonlinear regression analysis (GraphPad Prism Program, San Diego, […]) to yield median inhibitory concentration (IC50) values.

[4] = target: T3, hD3 receptor (Homo sapiens, UniProt P35462); experiment: Radioligand binding, dopamine D3 ([3H]spiperone); conditions: read-out: Binding affinity (Inhibition rate % at 10 μM) D3
T3 construct: purchased BioSignal Packard Inc., Montreal, Canada
Protocol: as §1

[5] = target: T4, hD4.2 receptor (Homo sapiens, UniProt P21917, DEL265-296); experiment: Radioligand binding, dopamine D4 ([3H]YM-09151-2); conditions: read-out: Binding affinity (Inhibition rate % at 10 μM) D4
T4 construct: purchased BioSignal Packard Inc., Montreal, Canada
T4 sequence (P21917 with tags, fused parts or gaps DEL265-296): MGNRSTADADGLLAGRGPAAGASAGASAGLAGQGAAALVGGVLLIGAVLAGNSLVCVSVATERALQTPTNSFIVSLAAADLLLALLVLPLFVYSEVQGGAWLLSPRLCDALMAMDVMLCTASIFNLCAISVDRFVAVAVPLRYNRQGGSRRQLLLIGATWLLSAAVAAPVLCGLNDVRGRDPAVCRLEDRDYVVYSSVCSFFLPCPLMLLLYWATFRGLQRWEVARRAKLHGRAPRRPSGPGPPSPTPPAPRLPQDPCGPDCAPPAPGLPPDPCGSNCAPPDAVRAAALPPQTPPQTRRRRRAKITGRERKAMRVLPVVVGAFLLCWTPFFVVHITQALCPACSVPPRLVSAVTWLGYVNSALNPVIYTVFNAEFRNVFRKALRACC
Protocol: as §1

[6] = target: T5, 5-HT1a (Homo sapiens, UniProt P08908); experiment: Radioligand binding, 5-HT1a ([3H]8-OH-DPAT); conditions: read-out: Binding affinity (Inhibition rate % at 10 μM) 5HT1a
T5 construct: purchased Euroscreen/BioSignal Packard Inc
T5 sequence (P08908 1-422): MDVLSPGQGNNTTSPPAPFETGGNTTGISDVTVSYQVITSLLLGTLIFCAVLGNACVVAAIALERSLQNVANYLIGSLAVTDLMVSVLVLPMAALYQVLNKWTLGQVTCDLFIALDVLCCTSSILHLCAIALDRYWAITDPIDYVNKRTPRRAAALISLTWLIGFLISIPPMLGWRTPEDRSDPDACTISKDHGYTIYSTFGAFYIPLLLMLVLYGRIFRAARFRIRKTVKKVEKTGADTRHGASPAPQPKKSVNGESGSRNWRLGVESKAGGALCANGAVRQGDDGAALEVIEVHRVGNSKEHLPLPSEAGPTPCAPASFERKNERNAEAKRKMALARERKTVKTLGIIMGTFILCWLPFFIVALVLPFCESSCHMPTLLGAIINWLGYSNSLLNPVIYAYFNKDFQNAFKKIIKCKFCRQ
Protocol: (§2) Radioligand bindings were performed according to the test method provided by the supplier of receptor membrane (Euroscreen/BioSignal Packard Inc.).

[7] = target: T6, 5-HT2a (Homo sapiens, UniProt P28223); experiment: Radioligand binding, 5-HT2a ([3H]Ketanserin); conditions: read-out: Binding affinity (Inhibition rate % at 10 μM) 5HT2a
T6 construct: purchased Euroscreen/BioSignal Packard Inc
Protocol: as §2

[8] = target: T7, 5-HT2c (Homo sapiens, UniProt P28335); experiment: Radioligand binding, 5-HT2c ([3H]Mesulergine); conditions: read-out: Binding affinity (Inhibition rate % at 10 μM) 5HT2c
T7 construct: purchased Euroscreen/BioSignal Packard Inc
T7 sequence (P28335 33-458): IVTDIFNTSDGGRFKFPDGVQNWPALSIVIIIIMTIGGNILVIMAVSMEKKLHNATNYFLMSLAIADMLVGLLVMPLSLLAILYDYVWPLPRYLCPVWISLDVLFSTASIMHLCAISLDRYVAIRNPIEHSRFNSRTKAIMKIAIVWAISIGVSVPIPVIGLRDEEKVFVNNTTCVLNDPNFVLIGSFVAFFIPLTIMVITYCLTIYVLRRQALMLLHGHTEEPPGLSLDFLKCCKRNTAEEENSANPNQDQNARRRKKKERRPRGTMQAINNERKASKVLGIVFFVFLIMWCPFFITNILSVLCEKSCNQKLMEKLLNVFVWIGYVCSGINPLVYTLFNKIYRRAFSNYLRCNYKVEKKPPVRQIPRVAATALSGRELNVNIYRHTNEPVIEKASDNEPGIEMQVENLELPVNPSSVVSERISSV
Protocol: as §2

[9] = target: T8, 5-HT7 (Homo sapiens, UniProt P34969); experiment: Radioligand binding, 5-HT7 ([3H]LSD); conditions: read-out: Binding affinity (Inhibition rate % at 10 μM) 5HT7
T8 construct: purchased Euroscreen/BioSignal Packard Inc
Protocol: as §2

T2 sequence (P14416 whole entry): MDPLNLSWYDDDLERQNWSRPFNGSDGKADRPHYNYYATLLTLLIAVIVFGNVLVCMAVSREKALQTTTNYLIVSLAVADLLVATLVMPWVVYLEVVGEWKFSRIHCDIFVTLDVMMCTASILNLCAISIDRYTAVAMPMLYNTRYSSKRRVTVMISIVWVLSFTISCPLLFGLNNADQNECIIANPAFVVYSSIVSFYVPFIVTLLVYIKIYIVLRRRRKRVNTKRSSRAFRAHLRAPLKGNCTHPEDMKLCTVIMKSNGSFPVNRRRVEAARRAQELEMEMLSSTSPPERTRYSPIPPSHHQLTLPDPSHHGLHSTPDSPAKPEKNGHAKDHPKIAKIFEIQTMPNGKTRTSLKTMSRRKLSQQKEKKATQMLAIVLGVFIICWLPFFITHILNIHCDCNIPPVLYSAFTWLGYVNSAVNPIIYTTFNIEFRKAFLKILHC
T1 sequence (P50406 whole entry): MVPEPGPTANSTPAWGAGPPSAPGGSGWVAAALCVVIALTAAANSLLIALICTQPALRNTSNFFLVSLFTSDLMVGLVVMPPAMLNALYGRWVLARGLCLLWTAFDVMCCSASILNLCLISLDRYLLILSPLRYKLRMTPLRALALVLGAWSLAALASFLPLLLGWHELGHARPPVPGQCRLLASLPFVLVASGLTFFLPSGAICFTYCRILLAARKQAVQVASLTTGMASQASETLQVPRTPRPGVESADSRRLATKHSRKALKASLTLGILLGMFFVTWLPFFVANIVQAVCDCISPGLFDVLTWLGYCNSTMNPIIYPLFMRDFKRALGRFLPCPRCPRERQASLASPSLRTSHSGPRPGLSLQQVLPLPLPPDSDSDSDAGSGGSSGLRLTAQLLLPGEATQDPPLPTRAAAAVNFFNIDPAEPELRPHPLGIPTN
T3 sequence (P35462 whole entry): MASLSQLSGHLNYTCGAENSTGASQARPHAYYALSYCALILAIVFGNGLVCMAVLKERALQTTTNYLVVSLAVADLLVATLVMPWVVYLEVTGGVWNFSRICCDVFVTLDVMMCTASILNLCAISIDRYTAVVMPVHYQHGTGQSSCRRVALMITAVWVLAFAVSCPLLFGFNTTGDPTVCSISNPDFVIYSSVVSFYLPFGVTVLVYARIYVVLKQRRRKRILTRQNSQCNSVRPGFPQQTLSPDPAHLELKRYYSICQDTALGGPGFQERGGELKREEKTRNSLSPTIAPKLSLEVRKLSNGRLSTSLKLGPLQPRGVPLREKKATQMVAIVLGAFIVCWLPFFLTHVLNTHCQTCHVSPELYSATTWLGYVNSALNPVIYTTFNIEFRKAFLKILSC
T8 sequence (P34969 whole entry): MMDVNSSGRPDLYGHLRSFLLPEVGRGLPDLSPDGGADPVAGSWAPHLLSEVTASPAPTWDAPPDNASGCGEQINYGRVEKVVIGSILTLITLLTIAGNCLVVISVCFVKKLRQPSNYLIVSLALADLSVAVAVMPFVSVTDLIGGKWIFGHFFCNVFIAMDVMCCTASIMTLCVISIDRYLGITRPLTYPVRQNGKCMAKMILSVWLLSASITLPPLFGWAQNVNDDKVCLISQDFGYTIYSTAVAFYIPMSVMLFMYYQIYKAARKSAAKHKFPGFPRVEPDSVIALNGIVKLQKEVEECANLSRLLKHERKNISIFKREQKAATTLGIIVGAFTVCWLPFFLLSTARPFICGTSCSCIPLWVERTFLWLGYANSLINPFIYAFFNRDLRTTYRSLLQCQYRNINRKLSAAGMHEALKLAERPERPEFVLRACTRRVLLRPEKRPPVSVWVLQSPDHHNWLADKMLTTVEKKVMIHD
D1, sequence (P21728 whole entry): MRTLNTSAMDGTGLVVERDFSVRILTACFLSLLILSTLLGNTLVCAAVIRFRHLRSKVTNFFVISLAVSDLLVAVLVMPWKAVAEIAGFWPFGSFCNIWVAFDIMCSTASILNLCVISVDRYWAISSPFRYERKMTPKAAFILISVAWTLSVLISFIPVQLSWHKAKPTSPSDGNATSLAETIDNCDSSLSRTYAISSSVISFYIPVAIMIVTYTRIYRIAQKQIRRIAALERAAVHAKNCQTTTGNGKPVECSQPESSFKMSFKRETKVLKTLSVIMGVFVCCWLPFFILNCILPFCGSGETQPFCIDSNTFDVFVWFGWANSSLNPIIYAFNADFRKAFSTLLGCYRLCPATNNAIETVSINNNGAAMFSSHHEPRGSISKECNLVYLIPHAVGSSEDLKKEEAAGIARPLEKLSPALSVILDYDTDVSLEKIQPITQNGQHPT
T6 sequence (P28223 whole entry): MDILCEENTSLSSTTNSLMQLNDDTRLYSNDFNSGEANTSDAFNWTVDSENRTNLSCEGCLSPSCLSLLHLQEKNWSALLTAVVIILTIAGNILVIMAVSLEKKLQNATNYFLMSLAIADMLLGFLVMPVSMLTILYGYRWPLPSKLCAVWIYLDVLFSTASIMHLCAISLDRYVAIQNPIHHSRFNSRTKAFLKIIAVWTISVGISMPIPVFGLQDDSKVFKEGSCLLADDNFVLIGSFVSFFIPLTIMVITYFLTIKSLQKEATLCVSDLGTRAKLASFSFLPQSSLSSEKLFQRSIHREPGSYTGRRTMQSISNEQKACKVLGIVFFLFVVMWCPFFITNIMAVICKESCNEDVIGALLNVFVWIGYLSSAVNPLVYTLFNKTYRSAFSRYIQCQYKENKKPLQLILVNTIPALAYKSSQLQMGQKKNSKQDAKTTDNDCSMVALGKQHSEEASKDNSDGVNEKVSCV

| Structure (SMILES) | IC50 [1] [nM] | inhibition at 10 µM [1] [%] | inhibition at 10 µM [2] [%] | inhibition at 10 µM [3] [%] | inhibition at 10 µM [4] [%] | inhibition at 10 µM [5] [%] | inhibition at 10 µM [6] [%] | inhibition at 10 µM [7] [%] | inhibition at 10 µM [8] [%] | inhibition at 10 µM [9] [%] |
| --- | --- | --- | --- | --- | --- | --- | --- | --- | --- | --- |
| C[C@H](NC(=O)Nc1cccc([C@@]2(C)C(=O)Nc3cc(Cl)cc(Cl)c3C2=O)c1)c1ccccc1 [Example 43, 1-(R)-[3-(5,7-dichloro-3-methyl-2,4-dioxo-1,2,3,4-tetrahydro-quinoline-3-yl) -phenyl]-3-(1-(S) -phenyl-ethyl) -urea] | 1110 | 70.6 | 30.1 | 5.7 | 24 | 6.1 | 18 | 21.3 | 0 | 5 |
| C[C@H](NC(=O)Nc1cccc([C@]2(C)C(=O)Nc3cc(Cl)cc(Cl)c3C2=O)c1)c1ccccc1 [Example 44, 1-(S)-[3-(5,7-dichloro-3-methyl-2,4-dioxo-1,2,3,4-tetrahydro-quinoline-3-yl) -phenyl]-3-(1-(S) -phenyl-ethyl) -urea] | 791 | 73.8 | 35 | 11.5 | 16.2 | 0 | 25.4 | 58.5 | 21.5 | 32.2 |
| CC1(c2ccc(Br)cc2Br)C(=O)Nc2cc(Cl)ccc2C1=O (stereo not drawn) [Example 45, 7-chloro-3-(2,4-dibromo-phenyl)-3-methyl-1H-quinoline-2,4-dione] | 2220 | 66 | 42.3 | 13 | 5.6 | 0 | 60.3 | 23 | 31.6 | 29.5 |
| CN1CCN(c2cc(Cl)c3c(c2)NC(=O)C(C)(c2ccc(O)cc2)C3=O)CC1 (stereo not drawn) [Example 47, 5-chloro-3-(4-hydroxy-phenyl)-3-methyl-7-(4-methyl-piperazine-1-yl)-1H-quinoline-2,4-dione] | 1060 | 71.9 | 20.9 | 27.2 | 14.2 | 12.8 | 27.1 | 42.8 | 12.4 | 16.3 |
| CN1CCN(c2cc(Cl)c3c(c2)NC(=O)C(C)(c2ccc(N)cc2)C3=O)CC1 (stereo not drawn) [Example 48, 3-(4-amino-phenyl) -5-chloro-3-methyl-7-(4-methyl-piperazine-1-yl)-1H-quinoline-2,4-dione] | 1080 | 71.6 | 27.4 | 19.6 | 8.7 | 0 | 35 | 37.2 | 2.5 | 5.6 |
| CN1CCN(c2cc(Cl)c3c(c2)NC(=O)C(C)(c2ccc([N+](=O)[O-])cc2)C3=O)CC1 (stereo not drawn) [Example 49, 5-chloro-3-methyl-7-(4-methyl-piperazine-1-yl)-3-(4-nitro-phenyl)-1H-quinoline-2,4-dione] | 1020 | 70.2 | 26 | 10.5 | 12.4 | 0 | 1.4 | 33.4 | 19.8 | 24.4 |
